Results: patent US20250205268A1, “TREATMENT OF VIRUSES WITH ANTIVIRAL NUCLEOSIDES” (priority 2021, published 2025)
“Also recorded” adds a separate entry of the source. Where two headings read alike, the source gives them in different places.

What was measured:
SARS-CoV-2 [1] = tested on: SARS-CoV-2
[2] = Phase 1 study
SARS-CoV-2 [3] = type: in vivo; conditions: for WHO Clinical Progression Scale, participants in score category 0 / WHO Clinical Progression Scale, participants in score category 1-3 / WHO Clinical Progression Scale, participants in score category 4-5 / WHO Clinical Progression Scale, participants in score category 6-9 / WHO Clinical Progression Scale, participants in score category 10: final MITT; for WHO Clinical Progression Scale, odds ratio (95% CI): proportional odds model
[4] = tested on: infectious SARS-CoV-2 virus; type: in vivo
SARS-CoV-2 [5] = type: in vivo
[6] = Part 2 interim analysis, MITT, 800 mg twice daily 5 days
[7] = Part 2 interim analysis, versus placebo
[8] = Part 2 interim, post-hoc sensitivity analysis, MITT

SMILES: CC(C)C(=O)OC[C@H]1O[C@@H](n2ccc(NO)nc2=O)[C@H](O)[C@@H]1O [Compound A, {(2R,3S,4R,5R)-3,4-dihydroxy-5-[4-(hydroxyimino)-2-oxo-3,4-dihydropyrimidin-1 (2H)-yl]oxolan-2-yl}methyl 2-methylpropanoate]
- number of doses sufficient to demonstrate efficacy (H1N1; administered every 12 hours, ferret model of influenza): Three
- dose demonstrating efficacy against H1N1 (H1N1; ferrets): 7 mg/kg BID
- tolerability (SARS-CoV-2 [1]; 5-day course up to 800 mg twice daily): well tolerated
- Median time to sustained recovery (SARS-CoV-2 [1]; all arms, hospitalized): 9 days
- day 29 recovery rates (SARS-CoV-2 [1]; all arms, hospitalized): 81.5%-85.2%
- hematologic toxicity based on prespecified adverse events (SARS-CoV-2 [1]; all doses): no evidence of hematologic toxicity
- clinical benefit (SARS-CoV-2 [1]; hospitalized patients with COVID-19): clinical benefit was not observed
- participants with undetectable SARS-CoV-2 RNA at day 10, more than placebo (SARS-CoV-2 [1]; participants with ≤5 days since sign/symptom onset): 14.3%-36.4%
- hematological laboratory tests [2]: no clinically significant abnormalities
- liver parameters ([2]; any dose): No clinically significant abnormalities in liver parameters
- serum lipase ([2]; at least 3 days after last dose, not dose related): Transient elevations of serum lipase
- participants with serious adverse events resulting in hospitalization (400-mg group): 3.2%
- participants with serious adverse events resulting in hospitalization (800-mg group): 1.8%
- incidence of treatment-associated adverse events (800-mg group compared with the other groups): lowest
- adverse events that led to discontinuation (Compound A groups combined): 1.4%
- adverse events (all doses, similar to placebo): few, and mainly low-grade
- Grade 3 or higher adverse events (combined Compound A groups): 5.0%
- hematology or clinical chemistry data (during the study): no dose-related trends
- WHO Clinical Progression Scale, participants in score category 0 (SARS-CoV-2 [3]; Baseline): (0.0) %
- WHO Clinical Progression Scale, participants in score category 1-3 (SARS-CoV-2 [3]; Baseline): (100.0) %
- WHO Clinical Progression Scale, participants in score category 4-5 (SARS-CoV-2 [3]; Baseline): (0.0) %
- WHO Clinical Progression Scale, participants in score category 6-9 (SARS-CoV-2 [3]; Baseline): (0.0) %
- WHO Clinical Progression Scale, participants in score category 10 (SARS-CoV-2 [3]; Baseline): (0.0) %
- WHO Clinical Progression Scale, participants in score category 0 (SARS-CoV-2 [3]; Day 3): (0.3) %
- WHO Clinical Progression Scale, participants in score category 1-3 (SARS-CoV-2 [3]; Day 3): (97.7) %
- WHO Clinical Progression Scale, participants in score category 4-5 (SARS-CoV-2 [3]; Day 3): (1.6) %
- WHO Clinical Progression Scale, participants in score category 6-9 (SARS-CoV-2 [3]; Day 3): (0.4) %
- WHO Clinical Progression Scale, participants in score category 10 (SARS-CoV-2 [3]; Day 3): (0.0) %
- WHO Clinical Progression Scale, participants in score category 0 (SARS-CoV-2 [3]; Day 5): (1.6) %
- WHO Clinical Progression Scale, participants in score category 1-3 (SARS-CoV-2 [3]; Day 5): (95.1) %
- WHO Clinical Progression Scale, participants in score category 4-5 (SARS-CoV-2 [3]; Day 5): (2.4) %
- WHO Clinical Progression Scale, participants in score category 6-9 (SARS-CoV-2 [3]; Day 5): (0.9) %
- WHO Clinical Progression Scale, participants in score category 10 (SARS-CoV-2 [3]; Day 5): (0.0) %
- WHO Clinical Progression Scale, participants in score category 0 (SARS-CoV-2 [3]; Day 10): (5.9) %
- WHO Clinical Progression Scale, participants in score category 1-3 (SARS-CoV-2 [3]; Day 10): (89.0) %
- WHO Clinical Progression Scale, participants in score category 4-5 (SARS-CoV-2 [3]; Day 10): (4.0) %
- WHO Clinical Progression Scale, participants in score category 6-9 (SARS-CoV-2 [3]; Day 10): (1.0) %
- WHO Clinical Progression Scale, participants in score category 10 (SARS-CoV-2 [3]; Day 10): (0.0) %
- WHO Clinical Progression Scale, participants in score category 0 (SARS-CoV-2 [3]; Day 15): (15.2) %
- WHO Clinical Progression Scale, participants in score category 1-3 (SARS-CoV-2 [3]; Day 15): (81.9) %
- WHO Clinical Progression Scale, participants in score category 4-5 (SARS-CoV-2 [3]; Day 15): (2.2) %
- WHO Clinical Progression Scale, participants in score category 6-9 (SARS-CoV-2 [3]; Day 15): (0.6) %
- WHO Clinical Progression Scale, participants in score category 10 (SARS-CoV-2 [3]; Day 15): (0.0) %
- WHO Clinical Progression Scale, participants in score category 0 (SARS-CoV-2 [3]; Day 29): (48.4) %
- WHO Clinical Progression Scale, participants in score category 1-3 (SARS-CoV-2 [3]; Day 29): (50.2) %
- WHO Clinical Progression Scale, participants in score category 4-5 (SARS-CoV-2 [3]; Day 29): (0.9) %
- WHO Clinical Progression Scale, participants in score category 6-9 (SARS-CoV-2 [3]; Day 29): (0.3) %
- WHO Clinical Progression Scale, participants in score category 10 (SARS-CoV-2 [3]; Day 29): (0.2) %
- WHO Clinical Progression Scale, odds ratio (95% CI) (SARS-CoV-2 [3]; Day 3): 1.19 (0.62, 2.30)
- WHO Clinical Progression Scale, odds ratio (95% CI) (SARS-CoV-2 [3]; Day 5): 1.52 (0.96, 2.39)
- WHO Clinical Progression Scale, odds ratio (95% CI) (SARS-CoV-2 [3]; Day 10): 1.58 (1.14, 2.20)
- WHO Clinical Progression Scale, odds ratio (95% CI) (SARS-CoV-2 [3]; Day 15): 1.36 (1.03, 1.78)
- WHO Clinical Progression Scale, odds ratio (95% CI) (SARS-CoV-2 [3]; Day 29): 1.04 (0.84, 1.29)
- Percentage of participants positive for infectious SARS-CoV-2 virus ([4]; 200 mg twice daily 5 days, Day 1): (50.0) %
- Percentage of participants positive for infectious SARS-CoV-2 virus ([4]; 200 mg twice daily 5 days, Day 3): (18.2) %
- Percentage of participants positive for infectious SARS-CoV-2 virus ([4]; 200 mg twice daily 5 days, Day 5): (4.5) %
- Percentage of participants positive for infectious SARS-CoV-2 virus ([4]; 400 mg twice daily 5 days, Day 1): (41.9) %
- Percentage of participants positive for infectious SARS-CoV-2 virus ([4]; 400 mg twice daily 5 days, Day 3): (11.6) %
- Percentage of participants positive for infectious SARS-CoV-2 virus ([4]; 800 mg twice daily 5 days, Day 1): (38.5) %
- deaths through Day 29 (SARS-CoV-2 [5]; Part 2 interim analysis): No participants in the Compound A group died; also recorded: No deaths were reported
- relative reduction in the percentage of participants hospitalized or died through Day 29 (SARS-CoV-2 [5]; Part 2 interim analysis): ~50%
- treatment difference (Compound A minus placebo) in hospitalization or death at day 29 (SARS-CoV-2 [5]; Part 2 interim analysis (28 of 385 vs 53 of 377), MITT): −6.8 percentage points
- hazard ratio for hospitalization/death through Day 29 (SARS-CoV-2 [5]; Part 2 interim analysis, MITT): 0.51
- reduction in the risk of hospitalization/death through Day 29 (time-to-event analysis) (SARS-CoV-2 [5]; Part 2 interim analysis, MITT): ~50%
- participants hospitalized or died through Day 29 (SARS-CoV-2 [5]; [6]): 7.3%
- reduction in the risk of hospitalization or death through Day 29 compared with placebo (SARS-CoV-2 [5]; [6]): 6.8 percentage point
- participants hospitalized or died through Day 29 (SARS-CoV-2 [5]; Part 2 interim analysis, subgroup positive for SARS-CoV-2 antibodies at baseline): 2.9%
- progression of COVID-19 signs/symptoms (SARS-CoV-2 [5]; [7]): lower percentage of participants in the Compound A than the placebo group reported progression
- sustained improvement/resolution of self-reported COVID-19 signs/symptoms (SARS-CoV-2 [5]; [7]): higher percentage of participants in the Compound A group achieved earlier sustained improvement/resolution
- COVID-19-related hospitalizations and/or deaths through Day 29, n (%) (SARS-CoV-2 [5]; [8]): 25 (6.5) n (%)
- Unadjusted difference vs placebo in COVID-19-related hospitalizations and/or deaths (SARS-CoV-2 [5]; [8]): −6.8
- Adjusted difference in rates % (95% CI) vs placebo in COVID-19-related hospitalizations and/or deaths (SARS-CoV-2 [5]; Part 2 interim, post-hoc sensitivity analysis, MITT, Miettinen & Nurminen): −6.8 (−11.1, −2.6) %
- Covid-19 signs and symptoms versus placebo (SARS-CoV-2 [5]; final): sustained abatement or resolution was more likely
- deaths reported through day 29 (SARS-CoV-2 [5]; final): One
- 29-day all-cause mortality (SARS-CoV-2 [5]; final all-randomized MITT): 0.1%
- difference vs placebo in hospitalization or death through day 29 (SARS-CoV-2 [5]; final all-randomized MITT): −3.0 percentage points
- hazard ratio for hospitalization or death through day 29 (SARS-CoV-2 [5]; final all-randomized MITT): 0.69
- rate of hospitalization or death through day 29 lower than placebo (time-to-event analysis) (SARS-CoV-2 [5]; final all-randomized MITT): approximately 31%
- participants hospitalized or died through day 29 (SARS-CoV-2 [5]; final all-randomized MITT (48 of 709), 800 mg twice daily 5 days): 6.8%
